Measured values taken from patent US10226044B2, “Agricultural and horticultural composition and method for cultivating plant” (AJINOMOTO CO., INC., priority 2014, dated 2019).
Read-outs that look alike come from different tables or passages of the source.

Tests used:
Psy, Pds and Zds genes = assay: Real-time PCR of genes involved in carotenoid synthesis in leaves; format: in vivo, cherry tomato; conditions: 10 mM Ile, leaves 24 hours after sprinkling
Experimental: A 10 mM isoleucine aqueous solution (Ile) or water (Con.) was sprinkled on leaf surfaces of cherry tomato plants, and RNA was isolated from the leaves 24 hours afterward. By using the isolated RNA, expression of the genes that participate in the biosynthesis of carotenoids, genes of phytoene synthase (Psy), phytoene desaturase (Pds), and ξ-carotene desaturase (Zds), were analyzed. The extraction of RNA, synthesis of cDNA, and real-time PCR analysis were conducted in the same manner as described above.

[1] = tested on: LOX, JAR1, PI and MYC2 genes; assay: Investigation of isoleucine concentration for sprinkling (I): gene expression; format: in vivo, cherry tomato (Suncherry Pure); conditions: 1 mM, 4 mM, 7 mM or 10 mM Ile, 20 mL per plant, sprinkled twice; leaves 3 hours after second sprinkling
Experimental: One week afterward, Ile was sprinkled again in the same manner, the leaves were collected 3 hours thereafter, and expression of the LOX, JAR1, PI and MYC2 genes were analyzed in the same manner as described in Example 5.

[2] = tested on: cherry tomato (Suncherry Pure); assay: Antioxidant capacity of tomato fruit extract (DPPH radical method); format: in vivo; conditions: 70% methanol extract of mature fruit; compared to tomatoes sprinkled with water (Con.) or Pro
Experimental: (§1) After the plants of four root clumps uniformly grew, and flower buds began to appear, water (Con.), 10 mM L-isoleucine aqueous solution (Ile), or 10 mM proline aqueous solution (Pro) was sprinkled on the whole plants once a week. The sprinkled volume was adjusted in accordance with the growth of the plants, and it was 15 to 30 mL per one root clump.

[3] = tested on: cherry tomato (Micro-Tom); assay: Sprinkling of Ile on cherry tomato (Micro-Tom): blooming, appearance, ripening and number of fruit; format: in vivo
Experimental: Three seeds of cherry tomato (Micro-Tom) were shown in compost contained in a slit pot (upper diameter 10.5 cm×height 8.8 cm), and cultivated in a biotron at a temperature of 23° C. with a light period of 14 hours (6:00 to 20:00) and dark period of 10 hours (20:00 to 6:00). As the compost, a mixture of Kumiai Nippi Engei Baido No. 1 (Nihon Hiryo) and vermiculite at a ratio of 3:1 (volume ratio) was used. After 3 weeks, one root clump was left, and the others were thinned out. From one month after the sowing to harvest, a 300-fold diluted solution of Hyponex liquid fertilizer (N:P:K=6:10:5, Hyponex Japan) was additionally applied as soil fertilizer by irrigation at a frequency of once a week in a volume of 100 mL per one root clump (pot). After the plants of five root clumps uniformly grew, and flower buds began to appear, water (Control, or Con) or 10 mM L-isoleucine aqueous solution (Ile) was sprinkled on the whole plants once a week. The sprinkled volume was 5 mL per one root clump. Then, the blooming, appearance of fruit, ripening of the fruit, and number of fruit produced were investigated for each root clump.

[4] = tested on: cherry tomato (Suncherry Pure); assay: Amino acid analysis of tomato fruit obtained with sprinkling of Ile or Pro; format: in vivo
Experimental: as §1
Mature fruit were taken from each of the cherry tomato plants sprinkled with water, Ile, or Pro, and the amino acid content was analyzed for each. Two pieces of fruit were taken from the flower cluster of the second tier of one root clump, that is, a total of 8 pieces of fruit were taken for each test group. Fruit juice was pressed out of each piece of fruit, and the fruit juice was diluted 10 times with 0.02 N HCl, and subjected to filter filtration. The amino acids contained in the obtained filtrate were measured. Measurement of the amino acids was performed with High Speed Amino Acid Analyzer L-8800 (Hitachi) according to the manual of this instrument. The amounts of the amino acids (μmol/mL) in each fruit juice filtrate were calculated, and the averages for eight pieces of fruit were used as the amino acid amounts of the corresponding test group.

LOX and Psy genes = assay: Gene expression in pepper (Anaheim) sprinkled with Ile; format: in vivo; conditions: 10 mM Ile once a week, compared to Con.
Experimental: A 10 mM isoleucine aqueous solution (Ile) was sprinkled on pepper plants (variety, Anaheim), which also belong to the family Solanaceae, like tomato, and gene expression analysis was performed. The pepper plants were cultivated in a greenhouse in the same manner as described in Example 2. Ile was sprinkled once a week, and after the second sprinkling, leaves were collected from the pepper plants. RNA extraction, cDNA synthesis, and real-time PCR were performed in the same manner as described in Example 5 to analyze gene expression. Expression of the LOX gene was analyzed by using leaves collected 3 hours after the second sprinkling, and expression of the Psy gene was analyzed by using leaves collected 24 hours after the second sprinkling.

bok choy = conditions: substitution for 20% of nitrate nitrogen in nutrient solution, hydroponics; cited from earlier work
Phelipanche aegyptiaca = conditions: plants cultivated on an agar medium; cited from earlier work
[5] = cited from earlier work
[6] = 10 mM, once a week, compared to control
[7] = fruit juice, plants sprinkled with 10 mM solution once a week, average of 8 fruit

CC[C@H](C)[C@H](N)C(=O)O [Ile, L-isoleucine]
expression of Pds (Psy, Pds and Zds genes): increased | expression of Psy (Psy, Pds and Zds genes): increased | expression of Zds (Psy, Pds and Zds genes): increased | Expression of the LOX, JAR1, PI and MYC2 genes [1]: increased substantially in an Ile concentration-dependent manner | antioxidant capacity (free radical-eliminating ability, DPPH) [2]: higher | Blooming and appearance of the fruit ([3]; 10 mM L-isoleucine sprinkled on whole plants once a week, 5 mL per root clump, compared to water (Con)): occurred sooner | Ripening of the tomatoes (fruit turned orange or red) [3, 6]: began earlier | number of colored tomatoes at the same time point [3, 6]: larger | numbers of blooms and fruit ([3]; 10 mM, once a week, compared to water (Con)): larger | number of harvested tomatoes, larger as compared to control ([3]; 10 mM, once a week, harvest on the 82nd day after sowing): 20% | many kinds of essential amino acids including branched chain amino acids and aromatic amino acids in fruit ([4]; 10 mM sprinkled once a week, compared to control): increased | Ala in fruit juice [4, 7]: 4.51 µmol/mL | Arg in fruit juice [4, 7]: 0.14 µmol/mL | Asn in fruit juice [4, 7]: 0.55 µmol/mL | Asp in fruit juice [4, 7]: 1.33 µmol/mL | Cys in fruit juice [4, 7]: 0.21 µmol/mL | Gln in fruit juice [4, 7]: 1.1 µmol/mL | Glu in fruit juice [4, 7]: 6.46 µmol/mL | Gly in fruit juice [4, 7]: 0.35 µmol/mL | His in fruit juice [4, 7]: 0.19 µmol/mL | Ile in fruit juice [4, 7]: 0.23 µmol/mL | Leu in fruit juice [4, 7]: 0.39 µmol/mL | Lys in fruit juice [4, 7]: 0.33 µmol/mL | Met in fruit juice [4, 7]: 0.09 µmol/mL | Phe in fruit juice [4, 7]: 0.5 µmol/mL | Pro in fruit juice [4, 7]: 0.33 µmol/mL | Ser in fruit juice [4, 7]: 0.67 µmol/mL | Thr in fruit juice [4, 7]: 0.3 µmol/mL | Total amino acids in fruit juice [4, 7]: 20.25 µmol/mL | Trp in fruit juice [4, 7]: 0.06 µmol/mL | Tyr in fruit juice [4, 7]: 0.082 µmol/mL | Val in fruit juice [4, 7]: 0.21 µmol/mL | γ-ABA in fruit juice [4, 7]: 6.42 µmol/mL | Expression of the LOX gene (LOX and Psy genes; leaves 3 hours after the second sprinkling): higher | Expression of the Psy gene (LOX and Psy genes; leaves 24 hours after the second sprinkling): higher | growth (weight of root clump) (bok choy): not effective | nitrogen and phosphorus contents of terrestrial parts (shoots) (bok choy): increased | infection of Phelipanche aegyptiaca in Arabidopsis thaliana (Phelipanche aegyptiaca): ineffective | solubility of isoleucine in water ([5]; 20° C.): 40.2 mg/mL | solubility of isoleucine in water [5]: about 0.3 M
